Measurements as given in ChEMBL document CHEMBL4354844, “Discovery of Balovaptan, a Vasopressin 1a Receptor Antagonist for the Treatment of Autism Spectrum Disorder” (J Med Chem, 2020).
Active and inactive are the calls of the source. The calls are words filed in the database; no cut-off is given here.

Key:
[1] = target: 5-hydroxytryptamine receptor 2B (Homo sapiens) (UniProt P41595); assay: Antagonist activity at recombinant human 5HT2B receptor expressed in CHOK1 cells assessed as inhibition of serotonin-induced inositol phosphate production measured after 30 mins by HTRF assay; format: functional, cell-based
Chain of 5-hydroxytryptamine receptor 2B (Homo sapiens) (P41595 whole entry): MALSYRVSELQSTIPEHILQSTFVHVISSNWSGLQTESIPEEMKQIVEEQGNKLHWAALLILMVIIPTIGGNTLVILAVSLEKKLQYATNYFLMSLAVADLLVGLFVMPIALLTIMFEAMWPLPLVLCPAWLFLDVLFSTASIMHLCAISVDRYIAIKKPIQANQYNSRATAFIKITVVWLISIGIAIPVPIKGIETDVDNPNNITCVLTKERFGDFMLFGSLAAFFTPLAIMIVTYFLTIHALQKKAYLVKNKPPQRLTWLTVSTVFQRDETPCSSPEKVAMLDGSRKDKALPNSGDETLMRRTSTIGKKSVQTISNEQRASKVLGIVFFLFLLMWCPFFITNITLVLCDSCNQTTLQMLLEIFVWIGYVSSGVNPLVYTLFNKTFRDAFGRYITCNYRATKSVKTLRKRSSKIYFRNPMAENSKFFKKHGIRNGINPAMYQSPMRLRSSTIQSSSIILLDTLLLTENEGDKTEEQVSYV

[2] = target: MDR1 (ABCB1, P-glycoprotein) (Homo sapiens, UniProt P08183); assay: Substrate activity at human MDR1 expressed in LLC-PK1 cells assessed as efflux ratio of permeability at 1 uM measured after 3.5 hrs by lucifer yellow based scintillation counting or HPLC method; format: ADME, cell-based
Chain of MDR1 (ABCB1, P-glycoprotein) (P08183 whole entry): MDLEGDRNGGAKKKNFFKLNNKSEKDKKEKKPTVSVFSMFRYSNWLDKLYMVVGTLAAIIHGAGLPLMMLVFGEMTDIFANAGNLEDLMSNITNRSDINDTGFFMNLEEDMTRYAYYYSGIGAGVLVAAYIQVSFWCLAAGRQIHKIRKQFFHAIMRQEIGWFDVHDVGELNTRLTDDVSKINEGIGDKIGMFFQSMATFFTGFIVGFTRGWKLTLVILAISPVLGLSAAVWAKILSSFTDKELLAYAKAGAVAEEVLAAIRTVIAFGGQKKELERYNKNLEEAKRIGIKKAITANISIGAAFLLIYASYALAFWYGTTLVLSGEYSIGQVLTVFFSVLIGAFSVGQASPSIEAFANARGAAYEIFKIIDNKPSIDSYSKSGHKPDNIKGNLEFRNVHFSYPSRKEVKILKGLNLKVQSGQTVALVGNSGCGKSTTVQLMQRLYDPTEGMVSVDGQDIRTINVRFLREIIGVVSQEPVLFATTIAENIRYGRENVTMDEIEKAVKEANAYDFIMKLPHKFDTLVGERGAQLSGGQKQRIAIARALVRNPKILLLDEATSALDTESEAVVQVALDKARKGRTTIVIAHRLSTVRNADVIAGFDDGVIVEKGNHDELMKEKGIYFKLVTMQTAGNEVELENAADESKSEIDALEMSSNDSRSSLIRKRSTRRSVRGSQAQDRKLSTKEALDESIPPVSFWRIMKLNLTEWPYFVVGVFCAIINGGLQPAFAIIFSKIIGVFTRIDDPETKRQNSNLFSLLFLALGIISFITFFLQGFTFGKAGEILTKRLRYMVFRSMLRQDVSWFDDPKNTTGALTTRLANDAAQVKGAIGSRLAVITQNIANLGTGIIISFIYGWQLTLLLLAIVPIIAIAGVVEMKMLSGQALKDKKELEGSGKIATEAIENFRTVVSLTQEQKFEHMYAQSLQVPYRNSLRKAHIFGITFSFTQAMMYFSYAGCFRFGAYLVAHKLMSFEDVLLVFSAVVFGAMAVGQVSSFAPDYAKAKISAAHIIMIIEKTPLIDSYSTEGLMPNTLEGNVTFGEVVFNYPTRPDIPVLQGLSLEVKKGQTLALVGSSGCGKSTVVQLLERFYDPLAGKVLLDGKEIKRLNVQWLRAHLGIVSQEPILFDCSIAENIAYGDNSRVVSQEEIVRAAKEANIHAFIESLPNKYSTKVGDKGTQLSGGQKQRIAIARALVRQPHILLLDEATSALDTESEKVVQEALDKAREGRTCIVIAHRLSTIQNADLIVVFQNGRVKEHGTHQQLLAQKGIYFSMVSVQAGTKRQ

[3] = Protein binding in human plasma assessed as unbound fraction; format: ADME, cell-free
[4] = Volume of distribution in rat; format: ADME; settings: in vivo
[5] = test system: Rattus norvegicus; assay: Neuroprotective activity in stress hyperresponsive Fischer F344 rat assessed as increase in perfusion in raphe nuclei at 30 mg/kg, iv administered as bolus dose via catheter by ASL-based MRI analysis; format: functional, organism-based
[6] = test system: Rattus norvegicus; assay: Neuroprotective activity in stress hyperresponsive Fischer F344 rat assessed as increase in perfusion in ventral tegmental area at 30 mg/kg, iv administered as bolus dose via catheter by ASL-based MRI analysis; format: functional, organism-based
[7] = test system: Rattus norvegicus; assay: Neuroprotective activity in stress hyperresponsive Fischer F344 rat assessed as change in perfusion in caudate putamen at 30 mg/kg, iv administered as bolus dose via catheter by ASL-based MRI analysis; format: functional, organism-based
[8] = Volume of distribution in cynomolgus monkey; format: ADME, Macaca fascicularis; settings: in vivo
[9] = Oral bioavailability in rat; format: ADME, organism-based; settings: in vivo
[10] = test system: Rattus norvegicus; assay: Neuroprotective activity in stress hyperresponsive Fischer F344 rat assessed as increase in perfusion in substantia nigra at 30 mg/kg, iv administered as bolus dose via catheter by ASL-based MRI analysis; format: functional, organism-based
[11] = test system: Rattus norvegicus; assay: In vivo receptor occupancy at V1a receptor in stress hyperresponsive Fischer F344 rat at 30 mg/kg, iv administered as bolus dose via catheter; format: functional
[12] = test system: Rattus norvegicus; assay: Neuroprotective activity in stress hyperresponsive Fischer F344 rat assessed as increase in perfusion in hypothalamus at 30 mg/kg, iv administered as bolus dose via catheter by ASL-based MRI analysis; format: functional, organism-based
[13] = Selectivity ratio of Kb for antagonist activity at human […] receptor to Kb for antagonist activity at human Gq5s-coupled V1a receptor expressed in CHO cells
[14] = target: Vasopressin V1a receptor (Homo sapiens) (UniProt P37288); assay: Antagonist activity at human Gq5s-coupled V1a receptor expressed in CHO cells assessed as inhibition of vasopressin-induced calcium flux preincubated for 20 mins followed by vasopressin addition and measured for 5 mins by fluo-4-AM dye based FLIPR assay; format: functional, cell-based
Chain of Vasopressin V1a receptor (Homo sapiens) (P37288 whole entry, looked up, the tested form may be a part): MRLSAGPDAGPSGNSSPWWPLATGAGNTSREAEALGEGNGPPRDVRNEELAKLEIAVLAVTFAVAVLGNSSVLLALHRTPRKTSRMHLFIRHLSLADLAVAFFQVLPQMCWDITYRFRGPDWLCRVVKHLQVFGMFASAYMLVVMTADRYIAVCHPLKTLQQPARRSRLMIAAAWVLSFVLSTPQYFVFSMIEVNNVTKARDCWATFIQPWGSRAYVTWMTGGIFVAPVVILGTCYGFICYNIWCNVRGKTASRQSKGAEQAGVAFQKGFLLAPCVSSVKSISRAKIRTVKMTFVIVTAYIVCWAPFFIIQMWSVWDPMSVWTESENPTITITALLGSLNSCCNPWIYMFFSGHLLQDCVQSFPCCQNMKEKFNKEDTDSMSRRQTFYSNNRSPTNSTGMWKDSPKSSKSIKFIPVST

[15] = test system: Rattus norvegicus; assay: Neuroprotective activity in stress hyperresponsive Fischer F344 rat assessed as increase in perfusion in entorhinal piriform cortex at 30 mg/kg, iv administered as bolus dose via catheter by ASL-based MRI analysis; format: functional, organism-based
[16] = test system: Rattus norvegicus; assay: Neuroprotective activity in stress hyperresponsive Fischer F344 rat assessed as change in perfusion in primary motor cortex at 30 mg/kg, iv administered as bolus dose via catheter by ASL-based MRI analysis relative to control; format: functional
[17] = Oral bioavailability in cynomolgus monkey; format: ADME, organism-based, Macaca fascicularis; settings: in vivo
[18] = test system: Rattus norvegicus; assay: Neuroprotective activity in stress hyperresponsive Fischer F344 rat assessed as change in perfusion in superior colliculi at 30 mg/kg, iv administered as bolus dose via catheter by ASL-based MRI analysis; format: functional, organism-based
[19] = test system: Rattus norvegicus; assay: Neuroprotective activity in stress hyperresponsive Fischer F344 rat assessed as change in perfusion in medial prefrontal at 30 mg/kg, iv administered as bolus dose via catheter by ASL-based MRI analysis relative to control; format: functional
[20] = test system: Rattus norvegicus; assay: Neuroprotective activity in stress hyperresponsive Fischer F344 rat assessed as change in perfusion in visual cortex at 30 mg/kg, iv administered as bolus dose via catheter by ASL-based MRI analysis relative to control; format: functional
[21] = Volume of distribution in dog; format: ADME, Canis lupus familiaris; settings: in vivo
[22] = test system: Rattus norvegicus; assay: Neuroprotective activity in iv dosed stress hyperresponsive Fischer F344 rat assessed as improvement in neural activity pattern administered as bolus dose via catheter by ASL-based MRI analysis; format: functional, organism-based
[23] = Selectivity ratio of Kb for antagonist activity at human V2 receptor to Kb for antagonist activity at human Gq5s-coupled V1a receptor expressed in CHO cells
[24] = test system: Rattus norvegicus; assay: Neuroprotective activity in stress hyperresponsive Fischer F344 rat assessed as increase in perfusion in amygdala at 30 mg/kg, iv administered as bolus dose via catheter by ASL-based MRI analysis; format: functional, organism-based
[25] = species: Homo sapiens; assay: Selectivity ratio of Kb for antagonist activity at recombinant human 5HT2B receptor expressed in CHOK1 cells to Kb for antagonist activity at human Gq5s-coupled V1a receptor expressed in CHO cells; format: cell-based
[26] = test system: Rattus norvegicus; assay: Neuroprotective activity in stress hyperresponsive Fischer F344 rat assessed as change in perfusion in inferior colliculi at 30 mg/kg, iv administered as bolus dose via catheter by ASL-based MRI analysis; format: functional, organism-based
[27] = test system: Rattus norvegicus; assay: Neuroprotective activity in stress hyperresponsive Fischer F344 rat assessed as change in perfusion in dorsal hippocampus at 30 mg/kg, iv administered as bolus dose via catheter by ASL-based MRI analysis; format: functional, organism-based

Compound `CN1Cc2cc(Cl)ccc2-n2c(nnc2[C@H]2CC[C@H](Oc3ccccn3)CC2)C1` [BALOVAPTAN] has a Kb [1] of 366 nM, an efflux ratio at 3.5 h, 1 µM [2] of under 2 and a fraction unbound [3] of 0.13. For the same compound, the Vd [4] was 0.5 to 1.3 L/kg, the Activity [5] was “Active” and the Activity [6] was “Active”. For the same compound, the Activity [7] was “Active”, the Vd [8] was 0.5 to 1.3 L/kg and the bioavailability [9] was 40%. The Activity [10] was “Active”, the Occ [11] was over 90% and the Activity [12] was “Active”. The Selectivity ratio [13] was 2735, the Kb [14] was 0.39 nM and the Activity [15] was “Active”. For the same compound, the Activity [16] was -20%, the bioavailability [17] was 130% and the Activity [18] was “Active”. The Activity [19] was -20%, the Activity [20] was -20% and the Vd [21] was 0.5 to 1.3 L/kg. For the same compound, the Activity [22] was “Dose-dependent effect”, the Selectivity ratio [23] was 3888 and the Activity [24] was “Active”. The Selectivity ratio [25] was 938, the Activity [26] was “Active” and the Activity [27] was “Active”.
